{"source": "paper PMC10698032", "about": "“A monoacylglycerol lipase inhibitor showing therapeutic efficacy in mice without central side effects or dependence” (Nature Communications, 2023)", "assay_in_all_cases": "biochemical", "key": {"[1]": {"target": "T1, norepinephrine transporter(h) (Homo sapiens, UniProt P23975)", "T1 construct": "gene SLC6A2", "T1 sequence (P23975 whole entry)": "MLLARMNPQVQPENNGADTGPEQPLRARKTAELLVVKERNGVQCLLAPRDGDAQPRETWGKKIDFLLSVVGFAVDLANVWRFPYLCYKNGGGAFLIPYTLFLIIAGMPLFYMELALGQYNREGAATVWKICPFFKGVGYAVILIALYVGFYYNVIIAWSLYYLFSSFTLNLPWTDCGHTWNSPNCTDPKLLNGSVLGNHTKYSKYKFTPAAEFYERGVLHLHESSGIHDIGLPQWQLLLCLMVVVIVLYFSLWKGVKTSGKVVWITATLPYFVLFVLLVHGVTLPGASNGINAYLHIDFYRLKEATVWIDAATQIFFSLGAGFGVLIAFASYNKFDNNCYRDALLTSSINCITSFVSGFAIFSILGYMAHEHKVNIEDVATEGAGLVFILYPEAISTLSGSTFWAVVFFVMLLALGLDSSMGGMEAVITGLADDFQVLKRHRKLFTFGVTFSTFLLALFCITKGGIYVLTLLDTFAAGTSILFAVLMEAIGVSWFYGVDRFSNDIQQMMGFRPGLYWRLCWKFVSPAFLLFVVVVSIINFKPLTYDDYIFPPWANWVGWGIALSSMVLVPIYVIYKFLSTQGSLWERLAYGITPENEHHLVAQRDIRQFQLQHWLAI", "set-up": "CEREP off-target panel, radioligand binding, inhibition of control specific binding", "settings": "read-out: % Inhibition of Control Specific Binding, Mean", "excerpt": "(§1) Mass spectrometry (MS)-based chemical proteomics experiments emulated these findings (Fig. 3d)."}, "dopamine transporter(h)": {"target": "T2, dopamine transporter(h) (Homo sapiens, UniProt Q01959)", "T2 construct": "gene SLC6A3", "set-up": "CEREP off-target panel, radioligand binding, inhibition of control specific binding", "settings": "read-out: % Inhibition of Control Specific Binding, Mean", "excerpt": "as §1"}, "[2]": {"target": "T3, M2 (h) (antagonist radioligand) (Homo sapiens, UniProt P08172)", "T3 construct": "gene CHRM2; antagonist radioligand", "set-up": "CEREP off-target panel, radioligand binding, inhibition of control specific binding", "settings": "read-out: % Inhibition of Control Specific Binding, Mean"}, "[3]": {"target": "T4, 5-HT1A(h) (agonist radioligand) (Homo sapiens, UniProt P08908)", "T4 construct": "gene HTR1A; agonist radioligand", "set-up": "CEREP off-target panel, radioligand binding, inhibition of control specific binding", "settings": "read-out: % Inhibition of Control Specific Binding, Mean"}, "[4]": {"target": "T5, 5-HT3(h) (antagonist radioligand) (Homo sapiens, UniProt P46098)", "T5 construct": "gene HTR3A; antagonist radioligand", "set-up": "CEREP off-target panel, radioligand binding, inhibition of control specific binding", "settings": "read-out: % Inhibition of Control Specific Binding, Mean"}, "[5]": {"target": "T6, A2A(h) (agonist radioligand)` (Homo sapiens, UniProt P29274)", "T6 construct": "gene ADORA2A; agonist radioligand", "T6 sequence (P29274 whole entry)": "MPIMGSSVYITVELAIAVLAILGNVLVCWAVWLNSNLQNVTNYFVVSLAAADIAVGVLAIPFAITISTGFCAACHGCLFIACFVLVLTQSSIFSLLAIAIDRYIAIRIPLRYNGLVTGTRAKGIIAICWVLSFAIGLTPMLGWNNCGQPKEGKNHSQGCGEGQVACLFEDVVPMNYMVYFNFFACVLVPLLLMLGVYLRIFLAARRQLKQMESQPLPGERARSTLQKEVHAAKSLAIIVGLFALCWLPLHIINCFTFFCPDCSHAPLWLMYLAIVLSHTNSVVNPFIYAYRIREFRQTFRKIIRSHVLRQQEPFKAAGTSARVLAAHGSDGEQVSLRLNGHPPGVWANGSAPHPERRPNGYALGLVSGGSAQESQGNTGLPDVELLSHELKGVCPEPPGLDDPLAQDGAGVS", "set-up": "CEREP off-target panel, radioligand binding, inhibition of control specific binding", "settings": "read-out: % Inhibition of Control Specific Binding, Mean"}, "[6]": {"target": "T7, D1(h) (antagonist radioligand) (Homo sapiens, UniProt P21728)", "T7 construct": "gene DRD1; antagonist radioligand", "T7 sequence (P21728 whole entry)": "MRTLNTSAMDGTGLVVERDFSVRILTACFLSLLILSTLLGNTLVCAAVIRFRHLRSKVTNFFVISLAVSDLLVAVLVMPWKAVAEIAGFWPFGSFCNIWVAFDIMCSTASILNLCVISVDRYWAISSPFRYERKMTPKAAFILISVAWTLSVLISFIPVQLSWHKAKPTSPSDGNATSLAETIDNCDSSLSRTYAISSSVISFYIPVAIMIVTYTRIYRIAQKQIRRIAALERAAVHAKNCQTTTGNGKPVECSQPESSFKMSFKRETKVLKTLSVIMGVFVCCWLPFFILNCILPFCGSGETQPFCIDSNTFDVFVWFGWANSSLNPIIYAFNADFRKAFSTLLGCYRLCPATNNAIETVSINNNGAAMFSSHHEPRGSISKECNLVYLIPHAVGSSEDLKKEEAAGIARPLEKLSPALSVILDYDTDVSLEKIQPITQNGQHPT", "set-up": "CEREP off-target panel, radioligand binding, inhibition of control specific binding", "settings": "read-out: % Inhibition of Control Specific Binding, Mean"}, "[7]": {"target": "T8, V1a(h) (agonist radioligand) (Homo sapiens, UniProt P37288)", "T8 construct": "gene AVPR1A; agonist radioligand", "set-up": "CEREP off-target panel, radioligand binding, inhibition of control specific binding", "settings": "read-out: % Inhibition of Control Specific Binding, Mean"}, "[8]": {"target": "T9, μ (MOP) (h) (agonist radioligand) (Homo sapiens, UniProt P35372)", "T9 construct": "gene OPRM1; agonist radioligand", "T9 sequence (P35372 whole entry)": "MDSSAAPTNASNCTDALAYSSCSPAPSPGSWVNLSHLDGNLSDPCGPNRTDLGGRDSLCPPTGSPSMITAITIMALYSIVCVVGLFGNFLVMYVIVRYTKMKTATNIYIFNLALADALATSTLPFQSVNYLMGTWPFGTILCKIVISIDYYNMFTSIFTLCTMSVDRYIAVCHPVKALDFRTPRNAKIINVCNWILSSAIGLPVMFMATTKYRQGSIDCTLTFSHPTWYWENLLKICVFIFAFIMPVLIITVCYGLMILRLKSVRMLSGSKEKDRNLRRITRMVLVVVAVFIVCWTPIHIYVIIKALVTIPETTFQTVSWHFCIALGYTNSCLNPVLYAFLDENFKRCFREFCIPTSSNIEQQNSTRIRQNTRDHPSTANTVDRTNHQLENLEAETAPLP", "set-up": "CEREP off-target panel, radioligand binding, inhibition of control specific binding", "settings": "read-out: % Inhibition of Control Specific Binding, Mean"}, "[9]": {"target": "T10, CCK1 (CCKA) (h) (agonist radioligand) (Homo sapiens, UniProt P32238)", "T10 construct": "gene CCKAR; agonist radioligand", "T10 sequence (P32238 whole entry)": "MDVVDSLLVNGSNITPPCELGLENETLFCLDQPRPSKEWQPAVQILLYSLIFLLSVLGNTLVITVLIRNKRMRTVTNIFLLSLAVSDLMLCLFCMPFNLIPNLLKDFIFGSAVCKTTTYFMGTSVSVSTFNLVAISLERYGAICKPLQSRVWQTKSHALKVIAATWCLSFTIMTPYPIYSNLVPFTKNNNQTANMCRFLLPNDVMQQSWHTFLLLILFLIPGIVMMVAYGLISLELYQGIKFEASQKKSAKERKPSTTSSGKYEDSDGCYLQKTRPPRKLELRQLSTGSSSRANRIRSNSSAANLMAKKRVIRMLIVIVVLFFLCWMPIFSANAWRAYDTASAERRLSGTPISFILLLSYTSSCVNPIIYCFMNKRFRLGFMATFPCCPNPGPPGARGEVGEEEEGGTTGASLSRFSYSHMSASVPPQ", "set-up": "CEREP off-target panel, radioligand binding, inhibition of control specific binding", "settings": "read-out: % Inhibition of Control Specific Binding, Mean"}, "[10]": {"target": "T11, δ (DOP) (h) (agonist radioligand) (Homo sapiens, UniProt P41143)", "T11 construct": "gene OPRD1; agonist radioligand", "T11 sequence (P41143 whole entry)": "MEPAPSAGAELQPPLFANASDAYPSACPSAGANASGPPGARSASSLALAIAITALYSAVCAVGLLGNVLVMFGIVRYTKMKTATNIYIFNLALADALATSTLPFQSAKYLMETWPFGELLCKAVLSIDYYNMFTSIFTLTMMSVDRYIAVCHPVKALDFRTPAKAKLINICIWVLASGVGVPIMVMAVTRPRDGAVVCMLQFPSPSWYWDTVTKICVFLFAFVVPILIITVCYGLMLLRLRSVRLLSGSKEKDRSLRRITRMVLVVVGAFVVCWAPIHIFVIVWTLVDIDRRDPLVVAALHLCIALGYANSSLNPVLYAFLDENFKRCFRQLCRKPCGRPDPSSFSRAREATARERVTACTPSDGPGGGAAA", "set-up": "CEREP off-target panel, radioligand binding, inhibition of control specific binding", "settings": "read-out: % Inhibition of Control Specific Binding, Mean"}, "[11]": {"target": "T12, kappa (h) (KOP) (agonist radioligand) (Homo sapiens, UniProt P41145)", "T12 construct": "gene OPRK1; agonist radioligand", "T12 sequence (P41145 whole entry)": "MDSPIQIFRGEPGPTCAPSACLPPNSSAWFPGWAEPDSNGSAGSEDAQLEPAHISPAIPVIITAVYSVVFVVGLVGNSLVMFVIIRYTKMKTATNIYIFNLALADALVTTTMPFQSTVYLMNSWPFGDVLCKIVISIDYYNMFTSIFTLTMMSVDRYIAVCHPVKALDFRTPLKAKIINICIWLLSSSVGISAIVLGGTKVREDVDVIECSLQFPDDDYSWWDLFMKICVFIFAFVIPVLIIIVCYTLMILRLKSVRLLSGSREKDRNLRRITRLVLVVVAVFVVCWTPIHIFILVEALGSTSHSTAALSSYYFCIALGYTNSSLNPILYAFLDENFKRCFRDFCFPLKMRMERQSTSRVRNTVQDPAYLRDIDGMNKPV", "set-up": "CEREP off-target panel, radioligand binding, inhibition of control specific binding", "settings": "read-out: % Inhibition of Control Specific Binding, Mean"}, "[12]": {"target": "T13, CB1(h) (agonist radioligand) (Homo sapiens, UniProt P21554)", "T13 construct": "gene CNR1; agonist radioligand", "set-up": "CEREP off-target panel, radioligand binding, inhibition of control specific binding", "settings": "read-out: % Inhibition of Control Specific Binding, Mean"}, "[13]": {"target": "T14, β1(h) (agonist radioligand) (Homo sapiens, UniProt P08588)", "T14 construct": "gene ADRB1; agonist radioligand", "set-up": "CEREP off-target panel, radioligand binding, inhibition of control specific binding", "settings": "read-out: % Inhibition of Control Specific Binding, Mean"}, "[14]": {"target": "T15, α2A(h) (antagonist radioligand) (Homo sapiens, UniProt P08913)", "T15 construct": "gene ADRA2A; antagonist radioligand", "set-up": "CEREP off-target panel, radioligand binding, inhibition of control specific binding", "settings": "read-out: % Inhibition of Control Specific Binding, Mean"}, "[15]": {"target": "T16, H1(h) (antagonist radioligand) (Homo sapiens, UniProt P35367)", "T16 construct": "gene HRH1; antagonist radioligand", "T16 sequence (P35367 whole entry)": "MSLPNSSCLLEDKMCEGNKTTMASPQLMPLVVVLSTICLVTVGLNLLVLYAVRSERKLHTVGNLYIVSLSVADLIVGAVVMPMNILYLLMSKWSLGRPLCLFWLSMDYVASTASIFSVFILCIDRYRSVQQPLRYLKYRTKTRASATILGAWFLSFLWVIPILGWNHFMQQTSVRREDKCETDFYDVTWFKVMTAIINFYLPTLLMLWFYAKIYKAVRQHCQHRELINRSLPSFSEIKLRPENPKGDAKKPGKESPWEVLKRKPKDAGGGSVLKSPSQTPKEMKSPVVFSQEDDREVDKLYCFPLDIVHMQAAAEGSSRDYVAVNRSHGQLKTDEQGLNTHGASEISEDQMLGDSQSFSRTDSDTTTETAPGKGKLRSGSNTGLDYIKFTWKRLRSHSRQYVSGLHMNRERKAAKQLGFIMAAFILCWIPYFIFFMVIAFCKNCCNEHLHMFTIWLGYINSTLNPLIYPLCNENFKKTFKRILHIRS", "set-up": "CEREP off-target panel, radioligand binding, inhibition of control specific binding", "settings": "read-out: % Inhibition of Control Specific Binding, Mean"}, "[16]": {"target": "T17, D2S(h) (agonist radioligand) (Homo sapiens, UniProt P14416)", "T17 construct": "gene DRD2; short isoform (D2S), agonist radioligand", "set-up": "CEREP off-target panel, radioligand binding, inhibition of control specific binding", "settings": "read-out: % Inhibition of Control Specific Binding, Mean"}, "[17]": {"target": "T18, M3(h) (antagonist radioligand) (Homo sapiens, UniProt P20309)", "T18 construct": "gene CHRM3; antagonist radioligand", "set-up": "CEREP off-target panel, radioligand binding, inhibition of control specific binding", "settings": "read-out: % Inhibition of Control Specific Binding, Mean"}, "Lck kinase (h)": {"target": "Lck kinase (h) (Homo sapiens, UniProt P06239)", "set-up": "CEREP off-target panel, enzyme inhibition", "settings": "read-out: % Inhibition, Mean (enzymes)"}, "COX2(h)": {"target": "T19, COX2(h) (Homo sapiens, UniProt P35354)", "T19 construct": "gene PTGS2", "T19 sequence (P35354 whole entry)": "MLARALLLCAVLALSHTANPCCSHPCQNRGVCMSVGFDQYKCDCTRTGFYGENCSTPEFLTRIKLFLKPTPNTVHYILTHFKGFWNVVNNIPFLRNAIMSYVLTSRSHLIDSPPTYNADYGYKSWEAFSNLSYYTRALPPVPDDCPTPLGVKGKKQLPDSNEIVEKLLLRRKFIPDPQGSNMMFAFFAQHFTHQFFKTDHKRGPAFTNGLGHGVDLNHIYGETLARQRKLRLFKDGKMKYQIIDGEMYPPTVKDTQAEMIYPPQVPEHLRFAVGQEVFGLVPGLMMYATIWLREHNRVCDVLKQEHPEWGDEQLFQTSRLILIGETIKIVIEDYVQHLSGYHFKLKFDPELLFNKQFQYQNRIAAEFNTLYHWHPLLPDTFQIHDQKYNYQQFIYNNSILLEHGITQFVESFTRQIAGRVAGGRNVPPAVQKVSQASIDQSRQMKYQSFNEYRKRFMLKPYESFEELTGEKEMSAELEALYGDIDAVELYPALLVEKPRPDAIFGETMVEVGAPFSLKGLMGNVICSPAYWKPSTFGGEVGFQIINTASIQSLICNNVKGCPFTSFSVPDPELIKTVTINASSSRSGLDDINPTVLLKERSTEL", "set-up": "CEREP off-target panel, enzyme inhibition", "settings": "read-out: % Inhibition, Mean (enzymes)"}, "PDE4D2 (h)": {"target": "T20, PDE4D2 (h) (Homo sapiens, UniProt Q08499)", "T20 construct": "gene PDE4D; isoform PDE4D2", "T20 sequence (Q08499 whole entry, canonical isoform)": "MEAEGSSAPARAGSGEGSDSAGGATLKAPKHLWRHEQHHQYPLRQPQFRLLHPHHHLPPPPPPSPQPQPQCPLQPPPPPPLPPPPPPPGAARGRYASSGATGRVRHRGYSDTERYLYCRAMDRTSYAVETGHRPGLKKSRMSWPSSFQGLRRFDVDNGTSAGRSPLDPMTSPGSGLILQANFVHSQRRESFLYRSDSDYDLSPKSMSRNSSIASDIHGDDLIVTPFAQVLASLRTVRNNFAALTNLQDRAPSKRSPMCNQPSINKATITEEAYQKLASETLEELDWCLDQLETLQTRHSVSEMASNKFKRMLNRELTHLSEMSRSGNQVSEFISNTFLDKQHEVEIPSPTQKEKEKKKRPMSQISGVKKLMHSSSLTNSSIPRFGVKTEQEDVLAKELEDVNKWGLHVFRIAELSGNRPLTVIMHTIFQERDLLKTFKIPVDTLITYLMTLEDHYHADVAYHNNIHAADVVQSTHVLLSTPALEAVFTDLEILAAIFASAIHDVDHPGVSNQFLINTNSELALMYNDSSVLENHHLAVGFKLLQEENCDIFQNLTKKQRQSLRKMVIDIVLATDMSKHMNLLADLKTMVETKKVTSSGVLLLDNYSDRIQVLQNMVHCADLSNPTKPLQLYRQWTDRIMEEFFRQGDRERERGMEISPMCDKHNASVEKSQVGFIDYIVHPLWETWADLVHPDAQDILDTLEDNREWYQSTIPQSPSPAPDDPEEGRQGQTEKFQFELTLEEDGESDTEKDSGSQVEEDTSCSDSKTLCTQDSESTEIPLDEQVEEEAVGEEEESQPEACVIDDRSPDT", "set-up": "CEREP off-target panel, enzyme inhibition", "settings": "read-out: % Inhibition, Mean (enzymes)"}, "PDE3A (h)": {"target": "PDE3A (h) (Homo sapiens, UniProt Q14432)", "set-up": "CEREP off-target panel, enzyme inhibition", "settings": "read-out: % Inhibition, Mean (enzymes)"}, "COX1(h)": {"target": "T21, COX1(h) (Homo sapiens, UniProt P23219)", "T21 construct": "gene PTGS1", "set-up": "CEREP off-target panel, enzyme inhibition", "settings": "read-out: % Inhibition, Mean (enzymes)"}, "acetylcholinesterase (h)": {"target": "T22, acetylcholinesterase (h) (Homo sapiens, UniProt P22303)", "T22 construct": "gene ACHE", "set-up": "CEREP off-target panel, enzyme inhibition", "settings": "read-out: % Inhibition, Mean (enzymes)"}}, "data": [{"smiles": "CCC(F)(F)C(=O)C[S+]([O-])c1ccc(C(=O)N2CCN(c3cccc(Cl)c3)[C@@H](C)[C@@H]2C)cc1Cl", "note": "(mixture of isomers) [compound 3, LEI-515]", "values": [{"measurement": "inhibition at 10 µM", "setting": "[1]", "result": 25.3, "unit": "%"}, {"measurement": "inhibition at 10 µM", "setting": "dopamine transporter(h)", "result": 45.2, "unit": "%"}, {"measurement": "inhibition at 10 µM", "setting": "[2]", "result": -4.2, "unit": "%"}, {"measurement": "inhibition at 10 µM", "setting": "[3]", "result": 10.6, "unit": "%"}, {"measurement": "inhibition at 10 µM", "setting": "[4]", "result": -8.1, "unit": "%"}, {"measurement": "inhibition at 10 µM", "setting": "[5]", "result": 11.7, "unit": "%"}, {"measurement": "inhibition at 10 µM", "setting": "[6]", "result": 6.2, "unit": "%"}, {"measurement": "inhibition at 10 µM", "setting": "[7]", "result": 9.9, "unit": "%"}, {"measurement": "inhibition at 10 µM", "setting": "[8]", "result": 20.4, "unit": "%"}, {"measurement": "inhibition at 10 µM", "setting": "[9]", "result": 19.5, "unit": "%"}, {"measurement": "inhibition at 10 µM", "setting": "[10]", "result": 48.3, "unit": "%"}, {"measurement": "inhibition at 1 µM", "setting": "[11]", "result": 21.7, "unit": "%"}, {"measurement": "inhibition at 10 µM", "setting": "[11]", "result": 59.5, "unit": "%"}, {"measurement": "inhibition at 10 µM", "setting": "[12]", "result": 22.3, "unit": "%"}, {"measurement": "inhibition at 10 µM", "setting": "[13]", "result": 6.6, "unit": "%"}, {"measurement": "inhibition at 10 µM", "setting": "[14]", "result": 18.3, "unit": "%"}, {"measurement": "inhibition at 10 µM", "setting": "[15]", "result": 8.1, "unit": "%"}, {"measurement": "inhibition at 10 µM", "setting": "[16]", "result": 2.2, "unit": "%"}, {"measurement": "inhibition at 10 µM", "setting": "[17]", "result": -19.9, "unit": "%"}, {"measurement": "inhibition at 10 µM", "setting": "Lck kinase (h)", "result": -5.3, "unit": "%"}, {"measurement": "inhibition at 10 µM", "setting": "COX2(h)", "result": 9.5, "unit": "%"}, {"measurement": "inhibition at 10 µM", "setting": "PDE4D2 (h)", "result": -16.6, "unit": "%"}, {"measurement": "inhibition at 10 µM", "setting": "PDE3A (h)", "result": -27.2, "unit": "%"}, {"measurement": "inhibition at 10 µM", "setting": "COX1(h)", "result": 5.4, "unit": "%"}, {"measurement": "inhibition at 10 µM", "setting": "acetylcholinesterase (h)", "result": 4.9, "unit": "%"}]}]}
